Results published in US20150368242A1, “NOVEL TETRAHYDROPYRIDOPYRIMIDINONE DERIVATIVE” (Ajinomoto Co., Inc., priority 2013, published 2015).
“And” between values parts separate entries of the source, which are not always exact repeats. Equal entries are not always repeated. Structures can show the parent of a compound that is named as a salt. Where two headings read alike, the source gives them in different places.

Columns and labels:
[1] = target: T1, recombinant human MGAT2 enzyme (Homo sapiens, UniProt Q3SYC2); assay: Test for human MGAT2 activity inhibitory action (14C-oleoyl CoA, recombinant enzyme microsomes); format: biochemical; design: key to Potency relative to Comparative Example 1 (higher = more potent): % inhibition = {1−(C−B)/(A−B)}×100, B = 10 μM Comparative Example 1
T1 construct: made in house; host or cells: CHO-K1 (Jump-In CHO-K1 Kit, Life Technologies); microsomal fraction used as the enzyme solution
Outline: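 Microsomes from CHO-K1 cells expressing human MGAT2 (0.67 μg/mL) reacted 30 min at 37 °C with 50 μM 2-monooleoyl glycerol, 50 μM oleoyl CoA, 2.2 μM 1-14C-oleoyl CoA and 8.3 μM orlistat in 50 mM Tris pH 7.4, 6 mM MgCl2, 2 mg/mL BSA, 0.3% DMSO. Heptane-extracted 14C counted; inhibition normalized between no-compound and 10 μM reference-compound controls.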

[2] = test system: orally lipid-loaded mouse model (C57BL/6J mice); assay: Test for lipid absorption inhibitory action (orally lipid-loaded mouse model); format: in vivo; details: for lipid absorption inhibitory action (in words): 30 mg/kg, Comparative Example 1 at 100 mg/kg; for Lipid absorption inhibition ratio (%): plasma neutral fat AUC up to 6 hours after corn oil
Description: The lipid absorption inhibitory action of the compounds of Examples 5 and 60 and the compound of Comparative Example 1 was examined in an orally lipid-loaded mouse model. In this test, 10 to 11-week old male C57BL/6J mice (CLEA Japan, Inc.) were used. After the mice were fasted for 17 hours from the preceding day, blood was collected from the fundus, and further the mice were subjected to forced oral administration of one of the compounds or the medium (0.5% methyl cellulose). Thirty minutes after the administration, tyloxapol (500 mg/kg) was administered into the tail vein, and corn oil (200 μl) was orally administered (n=5-6). Blood was collected via the tail vein 2, 4, and 6 hours after the administration of corn oil, and plasma was obtained by centrifuging the blood. The neutral fat concentration in the plasma was measured by using Triglyceride E-Test Wako (Wako Pure Chemical Industries, Ltd.). The neutral fat concentration in the plasma before the administration of the compound was taken as the value at 0 hours, and the area under the curve (AUC) of the neutral fat concentration in the plasma up to 6 hours after the administration of corn oil was calculated. From the average value of the AUC of each administration group, the lipid absorption inhibition ratio was obtained by using the following formula.
Lipid absorption inhibition ratio (%)=(Average value of AUC of medium administration group-Average value of AUC of compound administration group)/Average value of AUC of medium administration group×100

[3] = test system: C57BL/6J mice fed on high-fat diet (diet-induced obesity mouse model); assay: Test for anti-obesity action in high-fat diet fed mice; format: in vivo; details: for Body Fat Weight, average value (difference from medium administration group) / Fat-Free Weight, average value (difference from medium administration group): Day 21, quantitative NMR; for Percent Body Weight Change, average value (difference from medium administration group): forced oral once per day Day 1 to Day 22, Day 23, n=8
Source text: The anti-obesity action of the compound of Example 5 was examined in C57BL/6J mice fed on high-fat diet (Research Diets D12492). Thirteen-week old male C57BL/6J-DIO mice (CHARLES RIVER LABORATORIES JAPAN, INC.) were purchased, and fed in animal facilities under a 12-hour light/dark cycle for 13 weeks on the diet of D12492. From six days before the administration of the compound, the animals were habituated by inserting a tube for forced oral administration into the stomach once per day. One day before the administration of the compound, the mice were randomized on the basis of the body weight, and divided into groups (n=8). From Day 1 to Day 22, forced oral administration of the compound or a medium (0.5% methyl cellulose) was conducted once per day. The body weight was measured every day, and the body fat weight and the fat-free weight were measured by using a quantitative NMR apparatus (EcoMRI, Hitachi Aloka Medical, Ltd.) on Day 21.
The percent body weight change (Day 23, Table 6), the body fat weight (Day 21, Table 7), and the fat-free weight (Day 21, Table 8) were each expressed in terms of the difference between the average value of the compound administration group and the average value of the medium administration group, and the difference between the groups was subjected to Dunnett's multiple comparison test (significance level p=0.05). Note that, in Tables 6 to 8, “n.s.” means a non-significant difference.

[4] = First Test (Table 3), read-out: IC50
[5] = Second Test (Table 4), read-out: IC50
[6] = 30 mg/kg, Dunnett's test versus medium group
[7] = First Test (Table 3), relative to Comparative Example 1, greater value = higher inhibitory action

T1 sequence (Q3SYC2 whole entry): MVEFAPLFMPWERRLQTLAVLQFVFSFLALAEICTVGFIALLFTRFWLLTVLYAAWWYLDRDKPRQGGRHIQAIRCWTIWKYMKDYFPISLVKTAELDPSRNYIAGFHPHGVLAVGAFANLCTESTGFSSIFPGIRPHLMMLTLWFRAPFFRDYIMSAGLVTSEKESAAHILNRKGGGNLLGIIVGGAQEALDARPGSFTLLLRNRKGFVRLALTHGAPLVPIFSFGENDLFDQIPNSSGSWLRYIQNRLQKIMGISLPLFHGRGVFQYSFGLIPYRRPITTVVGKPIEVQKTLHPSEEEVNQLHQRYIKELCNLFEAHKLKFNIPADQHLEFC

O=C(CCNCC1COc2ccccc2O1)N1CCc2nc(SC3CCC3)n(-c3ccccc3)c(=O)c2C1 (stereo not shown) [Example 60, 2-cyclobutylsulfanyl-6-[3-(2,3-dihydro-1,4-benzodioxin-3-ylmethylamino)propanoyl]-3-phenyl-7,8-dihydro-5H-pyrido[4,3-d]pyrimidin-4-one trifluoroacetate]
IC50 ([1]; IC50 (nM), Table 5, Examples 25 to 60, same method): 1.1 nM
vs Comp. Ex. 1 ([1]; Table 5, relative to Comparative Example 1 measured in the same run): 140
lipid absorption inhibitory action (in words) [2]: comparable to that of the compound of Example 5
Lipid absorption inhibition ratio (%) ([2]; Test 3, 30 mg/kg oral): 42%

COc1ccc(CNc2nc3c(c(=O)n2-c2ccccc2)CN(C(=O)Nc2ccc(C(F)(F)F)cc2)CC3)cc1 [Comparative Example 1, reference compound]
IC50 [1, 4]: 223 nM
IC50 [1, 5]: 303 nM
IC50 ([1]; Table 5, Comparative Example 1 measured alongside the Example, read-out: IC50 (nM) of Comp. Ex. 1): 210 nM and 170 nM and 150 nM and 140 nM and 295 nM and 137 nM and 180 nM and 250 nM and 300 nM and 270 nM and 240 nM and 260 nM and 160 nM and 244 nM and 200 nM
Lipid absorption inhibition ratio (%) ([2]; Test 1, 30 mg/kg oral): 34%
Lipid absorption inhibition ratio (%) ([2]; Test 1, 100 mg/kg oral): 44%
Lipid absorption inhibition ratio (%) ([2]; Test 2, 100 mg/kg oral): 41%

O=C(CNCCCCCOc1ccc(C(F)(F)F)cc1)N1CCc2nc(SC3CCC3)n(-c3ccccc3)c(=O)c2C1 [Example 5, 2-cyclobutylsulfanyl-3-phenyl-6-[2-[5-[4-(trifluoromethyl)phenoxy]pentylamino]acetyl]-7,8-dihydro-5H-pyrido[4,3-d]pyrimidin-4-one trifluoroacetate]
Body Fat Weight, average value (difference from medium administration group) ([3]; 10 mg/kg oral once per day): -2.22 g
Fat-Free Weight, average value (difference from medium administration group) ([3]; 10 mg/kg oral once per day): -0.34 g
Percent Body Weight Change, average value (difference from medium administration group) ([3]; 10 mg/kg): −4.15%
Body Fat Weight, average value (difference from medium administration group) ([3]; 30 mg/kg oral once per day): -4.26 g
Fat-Free Weight, average value (difference from medium administration group) ([3]; 30 mg/kg oral once per day): -0.98 g
Percent Body Weight Change, average value (difference from medium administration group) ([3]; 30 mg/kg): −9.56%
body fat weight (in words) [3, 6]: significantly lowered
percent body weight change (in words) [3, 6]: significantly lowered
decrease of the fat-free body weight (in words) ([3]; 10 and 30 mg/kg, Dunnett's test versus medium group): did not have a statistically significant difference
vs Comp. Ex. 1 [1, 7]: 349
IC50 ([1]; IC50 (nM), First Test (Table 3)): 0.64 nM
lipid absorption inhibitory action (in words) [2]: not inferior to that of the compound of Comparative Example 1
Lipid absorption inhibition ratio (%) ([2]; Test 2, 30 mg/kg oral): 45%
Lipid absorption inhibition ratio (%) ([2]; Test 3, 30 mg/kg oral): 42%

O=C(CCNCc1ccccc1)N1CCc2nc(SC3CCC3)n(-c3ccccc3)c(=O)c2C1 [Example 10, 6-[3-(benzylamino)propanoyl]-2-cyclobutylsulfanyl-3-phenyl-7,8-dihydro-5H-pyrido[4,3-d]pyrimidin-4-one trifluoroacetate]
IC50 [1, 4]: 0.82 nM
Potency relative to Comparative Example 1 (higher = more potent) [1, 7]: 273

O=C(CCNCc1ccccc1)N1CCc2nc(SC3CCC3)n(Cc3ccco3)c(=O)c2C1 [Example 14, 6-[3-(benzylamino)propanoyl]-2-cyclobutylsulfanyl-3-(2-furylmethyl)-7,8-dihydro-5H-pyrido[4,3-d]pyrimidin-4-one trifluoroacetate]
IC50 [1, 5]: 4.7 nM
Potency relative to Comparative Example 1 (higher = more potent) ([1]; Second Test (Table 4), relative to Comparative Example 1): 65
